Series [1] has as its target T1, CaM (Homo sapiens, UniProt P0DP23).
T1 construct: 6X-His-GST (N, cleaved yes); made in house; host or cells: E. coli BL21-CodonPlus (DE3)-RIPL in M9 minimal media with 15NH4Cl
Description: 1H-15N HSQC NMR of 15N-CaM with compound. The class given is binding. The note with it: 5 equivalent molar excess over 100 μM CaM. As to the method: All NMR samples contained 100 μM ^15N-CaM in 20 mM HEPES pH 7.4, 100 mM KCl, 10 mM CaCl2, 10% D2O, and 5% DMSO. Initial spectra were collected for CaM alone before individual compounds were titrated to observe chemical shift perturbations. All spectra were acquired at 298 K using a 600 MHz Bruker Avance NEO NMR spectrometer with a triple resonance gradient cryoprobe. NMR spectra were processed using NMRPipe and analyzed using NMRFAM-SPARKY.

The nature of series [2]: CellTiter-Glo 2.0 cell viability assay.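 Note: luminescence read-out after 30 min compound exposure at 37 °C in HEPES-buffered HBSS, scaled to vehicle-treated cells as 100% and cell-free buffer wells as 0%.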 The class given is cell-based. The note with it: human, HEK293T cells, pH 7.4; at the compound's AC1/CaM NanoBiT IC50 concentration; read-out: % Viable Cells at AC1 IC50. A general note: In ATP-based viability assays light output follows the ATP content of the culture.
The subject of series [3] is HEK293T cells. Description: CellTiter-Glo 2.0 cell viability assay.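 Note: luminescence read-out after 30 min compound exposure at 37 °C in HEPES-buffered HBSS, scaled to vehicle-treated cells as 100% and cell-free buffer wells as 0%.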 Type of series: cell-based. The note with it: ∼300 μM.
Series [4] addresses T2, AC5 (Homo sapiens, UniProt O95622).
T2 construct: expressed in transfected cells
Nature of the series: cAMP accumulation assay, AC5-HEK Δ3/6 KO cells. The class given is cell-based. The note with it: read-out: % Inhibited at AC5 ± SEM. As to the method: (§1) Cryopreserved HEK293 cells with AC3 and AC6 knocked out, and stably expressing AC1, AC2, AC5, or AC8 (AC1-HEK Δ3/6 KO, AC2-HEK Δ3/6 KO, AC5-HEK Δ3/6 KO, or AC8-HEK Δ3/6 KO cells, respectively; [Soto-Velasquez et al., 2018]) were plated at 5,000 cells/well. Cells were then incubated for 1 h at 37°C and 5% CO2. Cells were then treated with varying concentrations of inhibitors for 30 min, followed by treatment with calcium ionophore A23187 (3 μM) in 500 μM 3-isobutyl-1-methylxanthine (IBMX), a phosphodiesterase inhibitor, for 1 h at RT (Sigma Aldrich, St. Louis, MO). Finally, Cisbio HTRF detection reagents were added and incubated for 1–24 h at RT. Plates were read according to manufacturer’s protocol on an HTRF-compatible plate reader at 620 and 665 nm cAMP concentrations were interpolated from a cAMP standard curve. […] For cytotoxicity assays, compounds were tested at 30 μM and this protocol was used with the exception of detection reagents; CellTiter-Glo 2.0 reagent was used according to manufacturer’s protocol and luminescence was read on the Synergy Neo2 plate reader. Data are normalized to cells treated with vehicle (100%) or 2% tween (0%) and are represented as the percent of vehicle, from the average of three independent experiments (N = 3).

Series [5] has as its target T3, AC8-C2b/CaM (Homo sapiens, UniProt P0DP23).
T3 construct: made in house; host or cells: E. coli BL21-CodonPlus (DE3)-RIPL
Description: AC8-C2b/CaM FP counterscreen assay.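 Note: fluorescence polarization of AC peptide binding to GST-CaM in HEPES buffer with KCl and 50 µM CaCl2, compound preincubated 30 min with GST-CaM, DMSO and calmidazolium as controls.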 Type of series: binding.

Series [6] addresses T4, AC8/CaM PPI (Homo sapiens, UniProt P0DP23).
T4 construct: confirmed as an AC1/AC8 non-selective hit against full-length AC1- and AC8-CaM in the NanoBiT assay; The hCaM residues 1–149, residues 1–1,248 of rat AC8 (rAC8); expressed in transfected cells; host or cells: HEK293T, transient transfection
Nature of the series: AC8/CaM NanoBiT assay in HEK293T cells. The class given is cell-based, rat.

Series [7] has as its target T5, AC8 (Homo sapiens, UniProt P40145).
T5 construct: expressed in transfected cells
Description: cAMP accumulation assay, AC8-HEK Δ3/6 KO cells. The class given is cell-based. The note with it: CDI analog SAR set, 3 μM A23187; read-out: IC50 (μM) ± SEM AC8. As to the method: as §1
(In general: Changes in cAMP serve as a functional read-out for many G protein-coupled receptors.)

In series [8] the target is T6, AC1 (Homo sapiens, UniProt Q08828).
T6 construct: expressed in transfected cells
Description: cAMP accumulation assay, AC1-HEK Δ3/6 KO cells. The class given is cell-based. As to the method: as §1, with “Cells” for “Cryopreserved HEK293 cells with AC3 and AC6 knocked out, and stably expressing AC1, AC2, AC5, or AC8 (AC1-HEK Δ3/6 KO, AC2-HEK Δ3/6 KO, AC5-HEK Δ3/6 KO, or AC8-HEK Δ3/6 KO cells, respectively; [Soto-Velasquez et al., 2018]) were plated at 5,000 cells/well. Cells”

Series [9] has as its target T7, AC8-Nt/CaM (Homo sapiens, UniProt P0DP23).
T7 construct: made in house; host or cells: E. coli BL21-CodonPlus (DE3)-RIPL
Description: AC8-Nt/CaM FP counterscreen assay.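 Note: fluorescence polarization of AC peptide binding GST-CaM in HEPES buffer with CaCl2, compound preincubated with CaM 30 min, peptide read after 2 h at room temperature in dark.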 Type of series: binding. (In general: A counterscreen serves to expose hits that act by an unwanted route or on another target.)

A short description of series [10]: Cytotoxicity assay (CellTiter-Glo 2.0) in AC1-HEK Δ3/6 KO cells. Type of series: cell-based. The note with it: human, percent of vehicle, read-out: % Viable Cells at AC1 30 μM. As to the method: as §1
Series [11] concerns the target T8, AC1/CaM PPI (Homo sapiens, UniProt P0DP23).
T8 construct: human AC1 (hAC1) residues 1–1,118 were cloned; The hCaM residues 1–149, residues 1–1,248 of rat AC8 (rAC8); expressed in transfected cells; host or cells: HEK293T, transient transfection
Nature of the series: AC1/CaM NanoBiT assay in HEK293T cells. The class given is cell-based.

For series [12], the target named is T9, AC1-C1b/CaM (Homo sapiens, UniProt P0DP23).
T9 construct: made in house; host or cells: E. coli BL21-CodonPlus (DE3)-RIPL
Description: AC1-C1b/CaM fluorescence polarization (FP) assay. The class given is binding.

The target of series [13] is T10, AC2 (Homo sapiens, UniProt Q08462).
T10 construct: expressed in transfected cells
Description: cAMP accumulation assay, AC2-HEK Δ3/6 KO cells. The note with it: read-out: % Inhibited at AC2 ± SEM. Type of series: cell-based. As to the method:
as §1

[14] abbreviates: Cheng-Prusoff from FP IC50 and Kd, n/i given where none.
Setting [15] is: ratio >1: more potent in AC1/CaM FP.

The results in this text go back to publication PMC9486168, “Protein-protein interaction-based high throughput screening for adenylyl cyclase 1 inhibitors: Design, implementation, and discovery of a novel chemotype” (Frontiers in Pharmacology, 2022).

In general, IC50 refers to the concentration needed to halve the response being measured. In general, Ki refers to a measure of affinity in units of concentration, obtained from inhibition or displacement. Low values mean a stronger hold on the target, high ones a looser hold on the target.

Like-named read-outs stand apart in the source and are kept apart here.

T6 sequence (Q08828 whole entry): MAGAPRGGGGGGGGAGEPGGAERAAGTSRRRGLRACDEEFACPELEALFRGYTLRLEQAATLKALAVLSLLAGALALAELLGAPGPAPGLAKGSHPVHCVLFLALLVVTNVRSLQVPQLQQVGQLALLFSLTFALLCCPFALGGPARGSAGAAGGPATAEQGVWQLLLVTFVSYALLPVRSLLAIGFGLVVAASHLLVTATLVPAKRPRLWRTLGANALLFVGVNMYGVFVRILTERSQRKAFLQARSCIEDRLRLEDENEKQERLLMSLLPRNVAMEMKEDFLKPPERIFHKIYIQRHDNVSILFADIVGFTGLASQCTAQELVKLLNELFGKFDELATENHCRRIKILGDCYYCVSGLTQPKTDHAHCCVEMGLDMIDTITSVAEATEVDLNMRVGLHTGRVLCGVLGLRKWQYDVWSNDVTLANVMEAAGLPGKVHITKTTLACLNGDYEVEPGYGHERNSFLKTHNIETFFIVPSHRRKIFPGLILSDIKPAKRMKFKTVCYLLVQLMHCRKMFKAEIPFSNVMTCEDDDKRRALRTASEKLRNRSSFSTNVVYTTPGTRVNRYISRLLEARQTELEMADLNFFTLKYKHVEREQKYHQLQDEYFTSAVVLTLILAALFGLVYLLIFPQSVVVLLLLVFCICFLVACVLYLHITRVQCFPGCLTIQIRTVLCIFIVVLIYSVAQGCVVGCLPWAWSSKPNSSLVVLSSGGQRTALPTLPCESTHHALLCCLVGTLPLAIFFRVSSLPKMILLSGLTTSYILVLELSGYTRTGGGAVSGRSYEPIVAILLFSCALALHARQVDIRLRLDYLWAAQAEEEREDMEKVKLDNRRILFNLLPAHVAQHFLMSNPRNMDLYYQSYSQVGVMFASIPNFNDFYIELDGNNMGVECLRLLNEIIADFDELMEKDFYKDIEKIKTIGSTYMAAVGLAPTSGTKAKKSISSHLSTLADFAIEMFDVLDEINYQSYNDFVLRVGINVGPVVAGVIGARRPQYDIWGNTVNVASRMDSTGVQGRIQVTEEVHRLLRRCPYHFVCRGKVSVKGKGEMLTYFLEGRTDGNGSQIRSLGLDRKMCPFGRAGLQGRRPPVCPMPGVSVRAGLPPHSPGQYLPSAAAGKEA
T5 sequence (P40145 whole entry, species assumed): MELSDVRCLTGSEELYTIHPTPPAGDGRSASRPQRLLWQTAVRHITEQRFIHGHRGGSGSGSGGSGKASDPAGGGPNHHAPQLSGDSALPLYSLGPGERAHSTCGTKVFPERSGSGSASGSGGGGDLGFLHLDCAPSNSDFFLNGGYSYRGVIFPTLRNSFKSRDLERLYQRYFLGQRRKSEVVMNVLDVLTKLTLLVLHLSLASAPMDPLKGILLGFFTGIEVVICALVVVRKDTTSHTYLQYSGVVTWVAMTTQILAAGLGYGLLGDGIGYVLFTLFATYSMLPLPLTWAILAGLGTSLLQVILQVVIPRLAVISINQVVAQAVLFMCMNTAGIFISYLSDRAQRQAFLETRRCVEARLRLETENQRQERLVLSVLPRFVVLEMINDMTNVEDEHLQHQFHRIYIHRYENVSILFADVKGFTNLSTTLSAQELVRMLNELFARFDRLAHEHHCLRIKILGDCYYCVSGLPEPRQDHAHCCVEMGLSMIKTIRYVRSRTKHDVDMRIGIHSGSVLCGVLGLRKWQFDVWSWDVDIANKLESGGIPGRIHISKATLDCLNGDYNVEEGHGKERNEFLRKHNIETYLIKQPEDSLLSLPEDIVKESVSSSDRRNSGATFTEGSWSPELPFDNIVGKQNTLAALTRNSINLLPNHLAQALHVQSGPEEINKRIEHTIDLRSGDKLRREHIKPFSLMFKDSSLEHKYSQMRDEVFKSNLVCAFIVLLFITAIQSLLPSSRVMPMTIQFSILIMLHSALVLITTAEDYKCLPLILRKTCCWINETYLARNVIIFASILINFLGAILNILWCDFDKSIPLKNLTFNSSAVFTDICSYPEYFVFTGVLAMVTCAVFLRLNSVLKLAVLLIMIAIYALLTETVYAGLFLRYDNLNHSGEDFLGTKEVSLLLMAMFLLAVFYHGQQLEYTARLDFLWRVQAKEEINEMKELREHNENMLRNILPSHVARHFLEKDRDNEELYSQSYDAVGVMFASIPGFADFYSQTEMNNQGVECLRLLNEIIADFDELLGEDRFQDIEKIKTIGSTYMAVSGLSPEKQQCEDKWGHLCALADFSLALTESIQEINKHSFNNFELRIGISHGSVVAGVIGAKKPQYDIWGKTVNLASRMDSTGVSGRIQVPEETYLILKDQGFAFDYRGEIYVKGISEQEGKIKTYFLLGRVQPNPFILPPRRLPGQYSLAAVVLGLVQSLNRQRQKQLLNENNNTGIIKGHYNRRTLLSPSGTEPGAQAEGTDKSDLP
T2 sequence (O95622 whole entry, species assumed): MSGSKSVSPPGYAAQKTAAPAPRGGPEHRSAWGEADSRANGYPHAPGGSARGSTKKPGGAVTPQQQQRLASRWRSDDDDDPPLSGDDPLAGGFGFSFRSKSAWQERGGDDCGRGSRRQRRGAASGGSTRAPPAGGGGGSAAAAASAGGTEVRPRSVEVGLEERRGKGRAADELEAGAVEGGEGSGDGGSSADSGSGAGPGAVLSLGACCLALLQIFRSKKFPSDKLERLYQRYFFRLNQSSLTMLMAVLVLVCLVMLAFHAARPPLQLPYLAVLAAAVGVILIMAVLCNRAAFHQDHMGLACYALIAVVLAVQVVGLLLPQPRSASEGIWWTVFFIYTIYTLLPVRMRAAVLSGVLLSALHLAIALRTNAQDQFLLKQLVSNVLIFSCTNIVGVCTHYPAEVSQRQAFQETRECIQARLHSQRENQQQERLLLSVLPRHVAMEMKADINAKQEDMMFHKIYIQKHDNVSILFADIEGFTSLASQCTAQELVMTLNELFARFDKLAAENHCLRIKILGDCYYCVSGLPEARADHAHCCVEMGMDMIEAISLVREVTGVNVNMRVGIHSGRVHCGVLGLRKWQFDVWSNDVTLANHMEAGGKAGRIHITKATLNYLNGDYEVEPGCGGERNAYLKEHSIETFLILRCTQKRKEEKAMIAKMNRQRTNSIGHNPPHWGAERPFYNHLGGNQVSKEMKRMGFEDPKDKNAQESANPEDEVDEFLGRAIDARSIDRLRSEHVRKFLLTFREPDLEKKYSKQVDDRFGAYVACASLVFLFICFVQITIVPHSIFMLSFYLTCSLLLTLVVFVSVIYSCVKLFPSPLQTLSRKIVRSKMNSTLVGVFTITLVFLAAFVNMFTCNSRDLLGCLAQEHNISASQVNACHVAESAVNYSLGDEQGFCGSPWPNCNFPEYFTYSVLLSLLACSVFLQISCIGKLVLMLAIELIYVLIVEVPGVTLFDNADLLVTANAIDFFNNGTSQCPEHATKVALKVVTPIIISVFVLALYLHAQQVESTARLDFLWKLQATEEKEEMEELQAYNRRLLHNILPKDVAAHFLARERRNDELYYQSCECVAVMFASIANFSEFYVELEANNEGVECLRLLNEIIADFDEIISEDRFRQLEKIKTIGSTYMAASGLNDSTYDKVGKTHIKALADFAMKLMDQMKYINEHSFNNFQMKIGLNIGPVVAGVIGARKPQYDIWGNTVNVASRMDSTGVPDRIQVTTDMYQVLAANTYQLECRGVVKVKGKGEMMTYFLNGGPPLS
T10 sequence (Q08462 whole entry): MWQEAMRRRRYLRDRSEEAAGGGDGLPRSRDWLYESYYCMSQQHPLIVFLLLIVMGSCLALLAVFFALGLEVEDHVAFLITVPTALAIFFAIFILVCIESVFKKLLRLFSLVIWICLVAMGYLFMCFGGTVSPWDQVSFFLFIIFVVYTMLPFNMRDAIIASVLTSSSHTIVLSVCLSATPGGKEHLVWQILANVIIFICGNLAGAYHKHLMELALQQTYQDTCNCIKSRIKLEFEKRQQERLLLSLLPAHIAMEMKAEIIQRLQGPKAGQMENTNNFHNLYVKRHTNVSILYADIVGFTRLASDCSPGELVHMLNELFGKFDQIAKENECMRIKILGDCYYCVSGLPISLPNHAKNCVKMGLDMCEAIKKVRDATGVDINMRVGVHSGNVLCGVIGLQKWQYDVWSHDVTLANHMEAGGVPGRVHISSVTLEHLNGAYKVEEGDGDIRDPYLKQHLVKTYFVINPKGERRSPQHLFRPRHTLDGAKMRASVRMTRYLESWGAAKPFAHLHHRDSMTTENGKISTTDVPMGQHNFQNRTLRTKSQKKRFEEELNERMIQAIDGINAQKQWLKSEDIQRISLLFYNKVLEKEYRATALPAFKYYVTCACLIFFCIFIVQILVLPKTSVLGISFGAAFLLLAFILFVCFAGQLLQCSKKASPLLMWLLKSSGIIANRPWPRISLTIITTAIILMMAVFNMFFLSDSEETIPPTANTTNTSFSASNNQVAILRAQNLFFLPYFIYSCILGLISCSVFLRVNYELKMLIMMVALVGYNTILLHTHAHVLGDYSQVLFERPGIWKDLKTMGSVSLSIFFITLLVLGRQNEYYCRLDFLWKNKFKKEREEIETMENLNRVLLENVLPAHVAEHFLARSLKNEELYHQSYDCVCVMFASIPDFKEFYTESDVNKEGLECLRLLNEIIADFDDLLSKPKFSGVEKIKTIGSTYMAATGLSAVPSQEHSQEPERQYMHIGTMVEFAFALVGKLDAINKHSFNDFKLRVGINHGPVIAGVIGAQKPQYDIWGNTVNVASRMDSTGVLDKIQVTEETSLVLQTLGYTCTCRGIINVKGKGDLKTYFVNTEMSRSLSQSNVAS

As for `CCc1cc(C(c2cccs2)N2CCN(C)CC2)c(NC(=O)c2ccco2)s1` (stereo not shown) [Compound 15], the “chemical shift perturbations (CSP) of 15N-CaM” value in series [1] was “several peaks were broadened by intermediate exchange and disappeared”. Also, the viability at 30 min in series [2] came to 100%. Besides, in series [3], the “cell viability at ∼300 μM” value was “decrease in cell viability”. The inhibition at 30 µM is 47 ± 10% in [4] and 59 ± 14% in [13]. In addition, the “Ki (μM) AC8 C2b” value in [5] (setting [14]) was “n/i”. In addition, the “Ki ratio (AC8-C2b/AC1)” value in series [5] (setting [15]) was “AC1 Selective”. In addition, the IC50 in series [6] (HEK293T, thapsigargin-stimulated, AUC, read-out: Nanobit: AC8-CaM IC50 (μM ± SEM)) worked out at 33.3 ± 1.18 µM; in series [7], 3.9 ± 1.83 µM; in [8] (CDI analog SAR set, 3 μM A23187, read-out: IC50 (μM) ± SEM AC1), 4.36 ± 0.32 µM; in series [8] (initial examination, 10,000 cells per well, 3 μM A23187, 1 h RT, read-out: AC1 IC50 ± SEM), 4.88 ± 2.14 µM; in [11] (HEK293T, thapsigargin-stimulated, AUC, read-out: Nanobit: AC1-CaM IC50 (μM ± SEM)), 26.1 ± 1.17 µM; in series [12] (100 nM AC1-C1b, 100 nM GST-CaM, 95% CI in brackets) it was 22.1 µM. Further, in series [6] (full-length proteins), the “inhibition of AC8-CaM interaction in NanoBiT” value was 100%. The “inhibition of AC1 activity” value in [8] (CDI analog set, maximal inhibition of A23187 response) turned out to be 100%. Moreover, in series [8] (initial characterization of hits, data not shown), the “inhibition of AC1 activity (efficacy)” value is given as around 75%. For the same compound, the “Ki (μM) AC8 NT” value in [9] (setting [14]) was “n/i”. Further, in series [9] (setting [15]), the “Ki ratio (AC8 NT/AC1)” value was “AC1 Selective”. Besides, the viability at 30 min, 30 μM in series [10] worked out at 43%. The “inhibition of AC1-CaM interaction in NanoBiT” value in series [11] (full-length proteins) worked out at 100%. Moreover, the Ki in series [12] (Cheng-Prusoff from FP IC50 and Kd) came out at 5.2 µM. The “AC1-CaM FP % inhib” value in series [12] (relative to 100 μM CDZ (100% inhibition), highest concentration tested) turned out to be 58%.
